Series [1] relates to HepG2. Description: Inhibition of TGF-beta-induced human CTGF promoter activity transiently transfected in human HepG2 cells assessed as reduction in plasminogen activator inhibitor-1 expression preincubated at 700 nM for 1 hr before TGF-beta stimulation measured after 6 hrs by quantitative real-time PCR analysis. The series is classed as cell-based.
The subject of series [2] is MDA-MB-231. Description: Cytotoxicity against human MDA-MB-231 cells at 1.4 uM after 48 hrs by XTT assay. The series is classed as cell-based. The conditions noted are these: mda-mb-231, 48 h. A general note: Tetrazolium assays rely on reduction of a dye to a coloured formazan, in cell work by metabolically active cells.
Series [3] has as its system HepG2. Description: Inhibition of TGF-beta-induced human CTGF promoter activity transiently transfected in human HepG2 cells assessed as CTGF protein expression preincubated at 714 nM for 1 hr before TGF-beta stimulation measured after 8 hrs by Western blot analysis. The series is classed as cell-based. (In western blotting, separated proteins are transferred to a membrane and probed.)

The test system of series [4] is HepG2. Description: Inhibition of TGF-beta-induced human CTGF promoter activity transiently transfected in human HepG2 cells assessed as reduction in alpha-smooth muscle actin expression preincubated at 700 nM for 1 hr before TGF-beta stimulation measured after 6 hrs by quantitative real-time PCR analysis. The series is classed as cell-based.
Series [5] deals with HepG2. Description: Cytotoxicity against human HepG2 cells at 1.4 uM after 48 hrs by XTT assay. The series is classed as cell-based. The note with it: hepg2, 48 h.
For series [6], the system named is HepG2. Put plainly: (§1) Inhibition of TGF-beta-induced human CTGF promoter activity transiently transfected in human HepG2 cells after 16 hrs by luciferase reporter assay. The series is classed as cell-based. For orientation: Reporter assays use an easily measured gene product as a stand-in for the process of interest.
The nature of series [7]: as §1. The note with it: HepG2, 16 h. The series is classed as cell-based.
Series [8] has as its system MDA-MB-231. Description: Antimigratory activity against human MDA-MB-231 cells assessed as reduction in formation of tubule-like structures after 16 hrs by matrigel assay relative to control. The series is classed as functional, cell-based.
For series [9], the system named is HepG2. Put plainly: Inhibition of TGF-beta-induced human CTGF promoter activity transiently transfected in human HepG2 cells assessed as reduction in tgf-beta expression preincubated at 700 nM for 1 hr before TGF-beta stimulation measured after 6 hrs by quantitative real-time PCR analysis. The series is classed as cell-based.
Series [10] concerns MDA-MB-231. Put plainly: Antimigratory activity against human MDA-MB-231 cells assessed as reduction in formation of tubule-like structures at 568 nM after 16 hrs by matrigel assay relative to control. The series is classed as functional. On the set-up: scale not given: the % may be the effect or the level left.
Series [11] deals with HepG2. Description: Inhibition of TGF-beta-induced human CTGF promoter activity transiently transfected in human HepG2 cells assessed as CTGF expression preincubated at 700 nM for 1 hr before TGF-beta stimulation measured after 4 hrs by quantitative real-time PCR analysis. The series is classed as cell-based.
Series [12] deals with HepG2. Description: Inhibition of TGF-beta-induced human CTGF promoter activity transiently transfected in human HepG2 cells assessed as reduction in type 1 collagen alpha1 expression preincubated at 700 nM for 1 hr before TGF-beta stimulation measured after 6 hrs by quantitative real-time PCR analysis. The series is classed as cell-based.
The nature of series [13]: Binding affinity to (AGCCAGACA)9-MLP element (unknown origin) transiently transfected in human HepG2 cells assessed as inhibition of TGF-beta-induced Smad-dependent transcriptional activity preincubated for 1 hr before TGF-beta stimulation measured after 16 hrs by luciferase reporter assay. The series is classed as cell-based.
In series [14] the test system is HepG2. Put plainly: Inhibition of TGF-beta-induced human CTGF promoter activity transiently transfected in human HepG2 cells assessed as reduction in mmp2 expression preincubated at 700 nM for 1 hr before TGF-beta stimulation measured after 6 hrs by quantitative real-time PCR analysis. The series is classed as cell-based.
The subject of series [15] is MDA-MB-231. Description: Antimigratory activity against human MDA-MB-231 cells assessed as reduction in formation of tubule-like structures at 275 nM after 16 hrs by matrigel assay relative to untreated control. The series is classed as functional. On the set-up: scale not given: the % may be the effect or the level left.
Series [16] relates to HepG2. Put plainly: Inhibition of TGF-beta-induced human CTGF promoter activity transiently transfected in human HepG2 cells assessed as CTGF protein expression preincubated at 3144 nM for 1 hr before TGF-beta stimulation measured after 8 hrs by Western blot analysis. The series is classed as cell-based.
Series [17] has as its system HepG2. Description: Inhibition of TGF-beta-induced human CTGF promoter activity transiently transfected in human HepG2 cells assessed as reduction in type 1 collagen alpha1 expression preincubated at 3.2 uM for 1 hr before TGF-beta stimulation measured after 6 hrs by quantitative real-time PCR analysis. The series is classed as cell-based.
Series [18] deals with HepG2. Description: Cytotoxicity against human HepG2 cells at 3.2 uM after 48 hrs by XTT assay. The series is classed as cell-based. The note with it: hepg2, 48 h.
The test system of series [19] is HepG2. Description: Binding affinity to (AGCCAGACA)9-MLP element (unknown origin) transiently transfected in human HepG2 cells assessed as inhibition of TGF-beta-induced Smad-dependent transcriptional activity measured as remaining activity preincubated at 2.2 uM for 1 hr before TGF-beta stimulation measured after 16 hrs by luciferase reporter assay. The series is classed as cell-based.

Series [20] relates to HepG2. Description: Inhibition of TGF-beta-induced human CTGF promoter activity transiently transfected in human HepG2 cells assessed as reduction in tgf-beta expression preincubated at 3.2 uM for 1 hr before TGF-beta stimulation measured after 6 hrs by quantitative real-time PCR analysis. The series is classed as cell-based.
Series [21] has as its system HepG2. Description: Inhibition of TGF-beta-induced human CTGF promoter activity transiently transfected in human HepG2 cells assessed as CTGF expression preincubated at 3.2 uM for 1 hr before TGF-beta stimulation measured after 4 hrs by quantitative real-time PCR analysis. The series is classed as cell-based.
For series [22], the system named is HepG2. Put plainly: Inhibition of TGF-beta-induced human CTGF promoter activity transiently transfected in human HepG2 cells assessed as reduction in plasminogen activator inhibitor-1 expression preincubated at 3.2 uM for 1 hr before TGF-beta stimulation measured after 6 hrs by quantitative real-time PCR analysis. The series is classed as cell-based.
For series [23], the system named is MDA-MB-231. Description: Antimigratory activity against human MDA-MB-231 cells assessed as reduction in formation of tubule-like structures at 2.4 uM after 16 hrs by matrigel assay relative to control. The series is classed as functional, cell-based.
Series [24] has as its system MDA-MB-231. Put plainly: Cytotoxicity against human MDA-MB-231 cells at 3.2 uM after 48 hrs by XTT assay. The note with it: mda-mb-231, 48 h. The series is classed as cell-based.
Series [25] deals with HepG2. Description: Inhibition of TGF-beta-induced human CTGF promoter activity transiently transfected in human HepG2 cells assessed as reduction in mmp2 expression preincubated at 3.2 uM for 1 hr before TGF-beta stimulation measured after 6 hrs by quantitative real-time PCR analysis. The series is classed as cell-based.
The test system of series [26] is HepG2. Description: Inhibition of TGF-beta-induced human CTGF promoter activity transiently transfected in human HepG2 cells assessed as reduction in alpha-smooth muscle actin expression preincubated at 3.2 uM for 1 hr before TGF-beta stimulation measured after 6 hrs by quantitative real-time PCR analysis. The series is classed as cell-based.
Series [27] has as its system HepG2. Description: Inhibition of TGF-beta-induced human CTGF promoter activity transiently transfected in human HepG2 cells assessed as reduction in tgf-beta expression preincubated at 680 nM for 1 hr before TGF-beta stimulation measured after 6 hrs by quantitative real-time PCR analysis. The series is classed as cell-based.
Series [28] concerns HepG2. Description: Inhibition of TGF-beta-induced human CTGF promoter activity transiently transfected in human HepG2 cells assessed as CTGF expression preincubated at 680 nM for 1 hr before TGF-beta stimulation measured after 4 hrs by quantitative real-time PCR analysis. The series is classed as cell-based.
For series [29], the system named is HepG2. Put plainly: Inhibition of TGF-beta-induced human CTGF promoter activity transiently transfected in human HepG2 cells assessed as reduction in mmp2 expression preincubated at 680 nM for 1 hr before TGF-beta stimulation measured after 6 hrs by quantitative real-time PCR analysis. The series is classed as cell-based.
Series [30] concerns MDA-MB-231. Put plainly: Antimigratory activity against human MDA-MB-231 cells assessed as reduction in formation of tubule-like structures at 136 nM after 16 hrs by matrigel assay relative to control. The series is classed as functional. On the set-up: scale not given: the % may be the effect or the level left.
Series [31] deals with HepG2. Put plainly: Inhibition of TGF-beta-induced human CTGF promoter activity transiently transfected in human HepG2 cells assessed as reduction in alpha-smooth muscle actin expression preincubated at 680 nM for 1 hr before TGF-beta stimulation measured after 6 hrs by quantitative real-time PCR analysis. The series is classed as cell-based.
The subject of series [32] is HepG2. Description: Inhibition of TGF-beta-induced human CTGF promoter activity transiently transfected in human HepG2 cells assessed as reduction in plasminogen activator inhibitor-1 expression preincubated at 680 nM for 1 hr before TGF-beta stimulation measured after 6 hrs by quantitative real-time PCR analysis. The series is classed as cell-based.
For series [33], the system named is HepG2. Put plainly: Inhibition of TGF-beta-induced human CTGF promoter activity transiently transfected in human HepG2 cells assessed as CTGF protein expression preincubated at 407 nM for 1 hr before TGF-beta stimulation measured after 8 hrs by Western blot analysis. The series is classed as cell-based.
For series [34], the system named is HepG2. Description: Inhibition of TGF-beta-induced human CTGF promoter activity transiently transfected in human HepG2 cells assessed as reduction in type 1 collagen alpha1 expression preincubated at 680 nM for 1 hr before TGF-beta stimulation measured after 6 hrs by quantitative real-time PCR analysis. The series is classed as cell-based.

Active and inactive are the calls of the source. The calls are words filed in the database; no cut-off is given here. A value given as a limit tells only on which side of the number the result lay.

One may read the IC50 as the concentration at which inhibition is half-maximal. For the compound `C/C1=C\CCC(C)C(C)OC(=O)Cc2c(Cl)c(O)cc(O)c2C1=O` (stereo unspecified), the inhibition entry in [1], in series [4], in series [9], in series [11], in series [12] and in series [14] was “Active” in each case. Further, the Activity entry in [2] is “Non-toxic”; in series [5], “Non-toxic”; in [8] it was “Dose-dependent effect”; in series [10], >70%. Further, in series [3], the inhibition entry was “inactive”. Further, the inhibition result in series [6] was “Dose-dependent effect”. Besides, the IC50 in series [7] was determined as 336 nM; in [13] it was 210 nM.
In the case of `c1ccc(-c2n[nH]cc2-c2ccnc3ccccc23)nc1`, the Activity in series [15] is 30%.
On to `C/C1=C\CCC(C)C(C)OC(=O)Cc2cc(O)cc(O)c2C1=O` (stereo unspecified), for which, in [16], the inhibition result was “inactive”. Besides, the inhibition entry in [17], in series [19], in series [20], in series [21], in [22] and in series [25] was “Active” each time. Besides, the inhibition result in [26] was “Active”. Also, the Activity result in [18] is “Non-toxic”; in series [8] it was “Dose-dependent effect”; in series [24], “Non-toxic”. For the same compound, in series [6], the inhibition entry is “Dose-dependent effect”. In addition, the IC50 is 1800 nM in series [7] and > 2200 nM in series [13]. For the same compound, the result in series [23] was Active.
For `C/C1=C\CCC(C)(O)C(C)OC(=O)Cc2c(Cl)c(O)cc(O)c2C1=O` (stereo unspecified), the inhibition entry in series [27], in series [28], in series [29], in series [31], in series [32] and in series [33] was “Active” throughout. Moreover, the inhibition result in series [34] was “Active”. In addition, in [6], the inhibition entry was “Dose-dependent effect”. Further, the half-inhibitory concentration (IC50) in [7] and in [13] was 136 nM throughout. Moreover, the Activity result in series [8] was “Dose-dependent effect”; in series [30] it was >70%.
Turning to `C[C@H]1CCCCCC(=O)c2c(O)cc(O)cc2CC(=O)O1`, the figures for the concentration for half-maximal inhibition (IC50) in series [7] and in [13] were 86400 nM and 34200 nM, respectively.
For `C[C@H]1CCC/C=C/C(=O)c2c(O)cc(O)cc2CC(=O)O1` [DEHYDROCURVULARIN] the same measures were 4400 nM and 1700 nM.

The values are drawn from ChEMBL document CHEMBL3400091, “4-Dechloro-14-deoxy-oxacyclododecindione and 14-deoxy-oxacylododecindione, two inhibitors of inducible connective tissue growth factor expression from the imperfect fungus Exserohilum rostratum” (Bioorg Med Chem, 2015).
